Data as given in ChEMBL document CHEMBL2158001, “Lead optimization studies towards the discovery of novel carbamates as potent AChE inhibitors for the potential treatment of Alzheimer's disease” (Bioorg Med Chem, 2012).

Molecular target: T1, Acetylcholinesterase (Mus musculus, UniProt P21836)
T1 sequence (P21836 whole entry): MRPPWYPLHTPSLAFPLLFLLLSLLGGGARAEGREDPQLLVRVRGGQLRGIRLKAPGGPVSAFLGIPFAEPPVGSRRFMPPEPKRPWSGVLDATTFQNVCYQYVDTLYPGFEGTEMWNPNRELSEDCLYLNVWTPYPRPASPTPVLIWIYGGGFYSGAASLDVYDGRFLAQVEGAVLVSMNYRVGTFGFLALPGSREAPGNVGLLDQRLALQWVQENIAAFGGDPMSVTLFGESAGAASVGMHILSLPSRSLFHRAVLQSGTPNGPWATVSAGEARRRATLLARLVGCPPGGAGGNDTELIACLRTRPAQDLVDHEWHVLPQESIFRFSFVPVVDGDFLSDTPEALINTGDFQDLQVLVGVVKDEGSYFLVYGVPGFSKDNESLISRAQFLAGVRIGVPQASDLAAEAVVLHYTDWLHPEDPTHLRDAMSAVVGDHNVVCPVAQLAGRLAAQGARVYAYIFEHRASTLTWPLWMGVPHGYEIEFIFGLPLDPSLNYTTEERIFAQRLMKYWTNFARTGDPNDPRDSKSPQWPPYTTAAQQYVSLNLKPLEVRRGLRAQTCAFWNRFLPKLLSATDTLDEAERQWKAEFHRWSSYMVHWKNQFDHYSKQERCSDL
Description: Inhibition of Swiss albino mouse RBC AChE after 30 mins by Ellman method

SMILES	IC50 [µM]
CCCCCCCCNC(=O)Oc1ccc2c(c1)CCCN2Cc1ccc(Cl)cc1Cl	> 10000
Cc1ccccc1NC(=O)Oc1ccc2c(c1)CCCN2Cc1ccccc1	14.3
Cc1cccc(NC(=O)Oc2ccc3c(c2)CCCN3Cc2ccccc2)c1	60.2
O=C(Nc1cccc(Cl)c1)Oc1ccc2c(c1)CCCN2Cc1ccc(Cl)cc1Cl	211
O=C(Nc1ccc(Cl)cc1)Oc1ccc2c(c1)CCCN2Cc1ccc(Cl)cc1Cl	3480
O=C(Nc1cccc(Br)c1)Oc1ccc2c(c1)CCCN2Cc1ccc(Cl)cc1Cl	140
COc1ccccc1NC(=O)Oc1ccc2c(c1)CCCN2Cc1ccc(Cl)cc1Cl	13.8
O=C(Nc1ccccc1F)Oc1ccc2c(c1)CCCN2Cc1ccc(Cl)cc1Cl	2.56
O=C(Nc1ccc(F)cc1)Oc1ccc2c(c1)CCCN2Cc1ccc(Cl)cc1Cl	89.4
CCCCCCNC(=O)Oc1ccc2c(c1)CCCN2Cc1ccc(Cl)cc1Cl	14.1
CCCCCCCNC(=O)Oc1ccc2c(c1)CCCN2Cc1ccc(Cl)cc1Cl	105
Cc1ccccc1NC(=O)Oc1ccc2c(c1)CCCN2Cc1ccc(Cl)cc1Cl	2.57
Cc1cccc(NC(=O)Oc2ccc3c(c2)CCCN3Cc2ccc(Cl)cc2Cl)c1	0.7
Cc1ccc(NC(=O)Oc2ccc3c(c2)CCCN3Cc2ccc(Cl)cc2Cl)cc1	851
O=C(Nc1ccccc1Cl)Oc1ccc2c(c1)CCCN2Cc1ccc(Cl)cc1Cl	11.9
